Results reported in US7432045B2 (priority 2003, dated 2008).
Square brackets hold non-standard residues; d marks the D form. Peptide text beside a SMILES is read from it. * marks the point of attachment. Biotin = O=C1N[C@H]2[C@H](CS[C@H]2CCCCC(=O)*)N1; Ahx = NCCCCCC(=O)O

Key:
in vitro = conditions: African green monkey
HSV-1 KOS [1] = test: Plaque reduction assay; assay type: cell-based
Procedure: Cell culture and virus: The procedures for growing Vero cells and preparing high titer stocks of HSV-1 KOS as described in Grau et al., Invest. Ophthal. and Vis. Sci. 30: 2474 (1989) were utilized. Vero cells were maintained in carbonate-buffered DMEM supplemented with 5% calf serum and 5% fetal bovine serum (regular medium). For some studies, cells were switched to serum-free DMEM buffered with 25 mM HEPES (pH 7.4) and allowed to adapt to that medium for 30 min prior to experimental treatments. Vero cells were seeded into wells (0.28 cm^2) of microtiter plates either at 3.5×10^4 cells/well for use 1 day later (8×10^4 cells/well) or at 1×10^4 cells/well for use 3 days later (2×10^5 cells/well).
Plaque reduction assay: Confluent Vero cell cultures in microtiter plates were infected for 1 hour at 37° C. in 40 μL of medium. Except where indicated, peptide treatments in 40 μL of medium lasted from 1 hour before through 1 hour after infection. At the end of the adsorption period, the cultures were re-fed with 100 μL of regular medium. Plaque formation was scored 2 days later and the number of plaques scored per well was normalized to the number counted in the absence of peptide. Using an ocular micrometer, plaque size (π/2×L×S) was determined by measuring the largest plaque diameter (L) and the diameter at a 90° angle to that (S). The size of each of the first 40 scored plaques was measured except when a plaque included less than 10 rounded cells or touched the side of the well.

HSV-1 KOS [2] = conditions: data not shown
[3] = system: Vero, HeLa, CV-1PD, TM-1, DP-9, CEMx174, NIKS, W12E cells; test: MTS assay, eight cell lines; conditions: eight cell lines
HSV-1 KOS mutant hrR3 = test: LacZ+ virus (hrR3) entry assay with pre-adsorbed virus (entry block); assay type: cell-based; conditions: FIG. 7B; read-out: inhibition of entry of pre-adsorbed virus IC50
Procedure: LacZ^+ virus (hrR3) entry assay: Confluent Vero cell cultures in 96-well microtiter plates were switched to Hepes-buffered serum-free DMEM, cooled on ice to 4° C. for 30 min, and infected with hrR3 for 1 hour at 4° C. in 40 μL of medium. Unattached virus was removed by rinsing with ice-cold medium. Treatments with antiviral peptide SEQ ID NO:1, referred to as EB, or a control peptide which comprised the RRKK tetra-peptide (SEQ ID NO:16) attached to a scrambled version of the membrane transiting peptide RRKKLAALPLVLAAPLAVLA (SEQ ID NO:17) (referred to as EBX), or mock-treatments with peptide-free medium were carried out in serum-free DMEM as indicated. Virus entry was initiated by transferring cultures to 37° C. To inactivate any remaining extracellular virus, cultures were rinsed with PBS and exposed to low pH citrate buffer (40 mM citric acid, 10 mM KCl, 135 mM NaCl, pH 3.0, according to Highlander et al., J. Virol. 61:3356 (1987), for 1 min at 23° C. The citrate was rinsed off with PBS and cultures were maintained in serum-supplemented DMEM until they were fixed with 0.5% gluteraldehyde in 5×PBS for 30 min at 23° C., stained for β-galactosidase activity for 1 hour or overnight at 23° C. with X-gal (Fisher Biotech; BP1615-1) in 1×PBS containing […], 1.3 mM K4Fe(CN)6, and 1.3 mM K3Fe(CN)6, and scored for the presence of blue […] cells.
In these studies, the hrR3 virus was pre-adsorbed to cells for 1 hour at 4° C. before ice cold 25 μM EB or EBX were added in serum-free DMEM. After an additional 1 hour at 4° C., cultures were shifted to 37° C. to initiate virus entry. At 15 min intervals following the temperature shift, any virus remaining outside the cells was inactivated by washing the cultures with low pH citrate buffer. Cultures were then rinsed and returned to peptide-free serum-supplemented DMEM until they were fixed and stained for β-galactosidase 8 hours after the temperature shift.
Two assays were used to assess the ability of the TAT peptides to inhibit infection of Vero cells with the hrR3 virus. In both assays, the virus was preadsorbed to cells at 4° C. and entry was initiated in the presence of peptide by shifting the cultures to a permissive temperature (30-37° C.). One hour later, the peptide was rinsed off. The entry blocking activity was measured in half of the cultures, in which any extracellular virus remaining after the peptide treatment was inactivated with low pH citrate buffer. The rest of the cultures were exposed to PBS instead of citrate buffer and used to measure virus inactivation. Virus inactivation depended on persistent effects of the peptide lasting for a period of eight hours. At the end of that period, all cultures were fixed and infected cells were detected by staining with X-gal.
Virus (m.o.i.=0.025) was preadsorbed to Vero cells for 1 h at 4° C. before cultures were exposed to TAT-C (FIG. 15A), bTAT-9X (FIG. 15B), or n50,51TAT-C (FIGS. 15C, 15D) for 1 h at 33 (FIGS. 15A, 15B), 31 (FIG. 15C), or 37° C. (FIG. 15D). […] Inhibition of entry was measured in the citrate-treated cultures, in which any remaining external virus was inactivated immediately following exposure to peptide (●). Persistent virus inactivation lasting, at least in part, for the 8 h period following exposure to peptide, was measured in the PBS-treated cultures (◯). The IC50s measured in these experiments are included in Table 5.

cornea = test: In vivo peptide toxicity, cornea; set-up: species or system BALB/C mice
Procedure: (i) Cornea: Four-6-week-old female BALB/C mice (Harlan Sprague Dawley, Indianapolis, Ind.) were anesthetized by halothane inhalation (3-5%). A 2.0 μL drop of serum-free 5×DMEM solution containing 6.1 mM EB, 6.1 mM EBX, 7.5 mM TAT-C, 7.5 mM n50,51 TAT-C, 7.5 mM TAT-Cd, or 11.2 mM bHOMd or serum-free DMEM only (control) was then placed on the cornea and the mice were returned to their cages. Each group consisted of 5 mice, except for 11.2 mM bHOMd, and 7.5 mM TAT-Cd, which consisted of 4 mice. Only the right eye in each mouse received the peptide. Treatments were given 4 times per day at least 2 hrs apart for 7 days. On days 1, 5, and 7, the mice were examined microscopically for evidence of blepharitis, punctate keratopathy, dendrite ulceration and geographic ulceration. Damage to the corneal epithelium was assessed by staining with 1.0% […] and examination under a microscope with blue light. Blepharitis was scored: 1+ for noticeable puffy eyelids, 2+ for puffy eyelids with moderate crusting, 3+ for eye 50% swollen shut with severe crusting, and 4+ for eye totally swollen and crusted shut (Brandt et al., 1992). Punctate keratopathy, dendrite ulceration, and geographic ulceration were scored: 1+ for <25% of the cornea involved, 2+ for 25-50% involved, 3+ for 50-75% involved, and 4+ for >75% involved. The mean disease score for each group of mice on each day was calculated by the sum of disease scores in each group on each day divided by the numbers of mice in that group. On day 7, following the last treatment, the mice were sacrificed and the eyes were removed, fixed in 10% formalin, embedded in paraffin, sectioned (5μ each), and stained with hematoxylin and eosin as we have described previously (Brandt et al., 1996). Sections were then examined for evidence of damage to the cornea, sclera, lens, and retina.

[4] = system: influenza A virus (Sydney 05/97,H3N2)

Compound: CC(C)C[C@H](NC(=O)[C@H](C)NC(=O)[C@H](CCCCN)NC(=O)[C@H](CC(C)C)NC(=O)[C@H](C)NC(=O)[C@H](CC(C)C)NC(=O)[C@H](CCCCN)NC(=O)[C@H](CC(C)C)NC(=O)[C@H](C)NC(=O)[C@H](CC(C)C)NC(=O)[C@H](CCCCN)NC(=O)CCCCCNC(=O)CCCC[C@@H]1SC[C@@H]2NC(=O)N[C@@H]21)C(=O)N[C@@H](CCCCN)C(=O)N[C@@H](C)C(=O)N[C@@H](C)C(=O)N[C@@H](CC(C)C)C(=O)N[C@@H](CCCCN)C(=O)N[C@@H](CC(C)C)C(=O)N[C@@H](C)C(N)=O [bKLA, b - KLALKLALKALKAALKLA-amide]
- cytotoxic effects (trypan blue staining) (MDCK cells): No cytotoxic effects
- IC50 (in vitro): 15 µM

Compound: NH2 - RRKKAAVALLAVLLALLAPP-COOH (H-RRKKAAVALLAVLLALLAPP-OH) [EBPP]
- antiviral activity compared to EB (HSV-1 KOS [1]): twice as active
- activity compared to EB in yield reduction assay (HSV-1 KOS [2]): twice as active

Compound: CC(C)C[C@H](NC(=O)[C@H](CCCCN)NC(=O)[C@H](CCCCN)NC(=O)[C@H](CCCNC(=N)N)NC(=O)[C@@H](N)CCCNC(=N)N)C(=O)N[C@@H](C)C(=O)N[C@@H](C)C(=O)N[C@@H](CC(C)C)C(=O)N1CCC[C@H]1C(=O)N[C@@H](CC(C)C)C(=O)N[C@H](C(=O)N[C@@H](CC(C)C)C(=O)N[C@@H](C)C(=O)N[C@@H](C)C(=O)N1CCC[C@H]1C(=O)N[C@@H](CC(C)C)C(=O)N[C@@H](C)C(=O)N[C@H](C(=O)N[C@@H](CC(C)C)C(=O)N[C@@H](C)C(=O)O)C(C)C)C(C)C [EBX, RRKKLAALPLVLAAPLAVLA, reference compound] (H-RRKKLAALPLVLAAPLAVLA-OH)
- cytotoxicity to cells (MTS), overall [3]: generally not cytotoxic
- IC50 (HSV-1 KOS mutant hrR3): ~100 µM
- corneal pathology (cornea; mouse, in vivo): no evidence of corneal pathology
- cytotoxic effects (Vero cells): No cytotoxic effects

Compound: CC[C@H](C)[C@H](NC(=O)[C@H](CCCCN)NC(=O)[C@@H](NC(=O)[C@H](CCC(N)=O)NC(=O)[C@H](CCCNC(=N)N)NC(=O)CCCCCNC(=O)CCCC[C@@H]1SC[C@@H]2NC(=O)N[C@@H]21)[C@@H](C)CC)C(=O)N[C@@H](Cc1c[nH]c2ccccc12)C(=O)N[C@@H](Cc1ccccc1)C(=O)N1CCC[C@H]1C(=O)N[C@@H](CC(N)=O)C(=O)N[C@@H](CCCNC(=N)N)C(=O)N[C@@H](CCCNC(=N)N)C(=O)N[C@@H](CCSC)C(=O)N[C@@H](CCCCN)C(=O)N[C@@H](Cc1c[nH]c2ccccc12)C(=O)N[C@@H](CCCCN)C(=O)N[C@@H](CCCCN)C(=O)N1CCC[C@H]1C(=O)NCC(=O)N[C@@H](Cc1ccc(O)cc1)C(=O)N[C@@H](C)C(=O)NCC(=O)N[C@@H](C)C(=O)N[C@H](C(=O)N[C@H](C(=O)N[C@@H](CC(N)=O)C(=O)N[C@@H](CC(=O)O)C(=O)N[C@@H](CC(C)C)C(=O)O)C(C)C)C(C)C [bHOM-9, b - RQIKIWFPNRRMKWKK-9] ({Biotin-Ahx}-RQIKIWFPNRRMKWKKPGYAGAVVNDL-OH)
- antiviral effect against influenza A virus versus cytotoxic effects [4]: antiviral and cytotoxic effects were inseparable
- IC50 (in vitro): 50 µM

Compound: CC[C@@H](C)[C@@H](NC(=O)[C@@H](CCCCN)NC(=O)[C@H](NC(=O)[C@@H](CCC(N)=O)NC(=O)[C@@H](CCCNC(=N)N)NC(=O)CCCCCNC(=O)CCCC[C@@H]1SC[C@@H]2NC(=O)N[C@@H]21)[C@H](C)CC)C(=O)N[C@H](Cc1c[nH]c2ccccc12)C(=O)N[C@H](Cc1ccccc1)C(=O)N1CCC[C@@H]1C(=O)N[C@H](CC(N)=O)C(=O)N[C@H](CCCNC(=N)N)C(=O)N[C@H](CCCNC(=N)N)C(=O)N[C@H](CCSC)C(=O)N[C@H](CCCCN)C(=O)N[C@H](Cc1c[nH]c2ccccc12)C(=O)N[C@H](CCCCN)C(=O)N[C@H](CCCCN)C(N)=O [bHOMd, b - RQIKIWFPNRRMKWKK-amide] ({Biotin-Ahx}-[dR][dQ][dI][dK][dI][dW][dF][dP][dN][dR][dR][dM][dK][dW][dK][dK]-NH2)
- antiviral effect against influenza A virus versus cytotoxic effects [4]: blocks influenza A virus in the absence of cytotoxic effects
- cytotoxic effects (trypan blue staining) (MDCK cells): No cytotoxic effects
- punctate keratopathy (cornea; calcein staining): very mild punctate keratopathy
- blepharitis (cornea; four times a day for seven days): mild blepharitis
